Earlier results on two compounds are cited in US20210268080A1, “IMMUNE STIMULATING COMPOSITIONS FOR THE TREATMENT AND REVENTION OF INFECTIONS WITH INTRACELLULAR PATHOGENS” (priority 2018, published 2021).

The data set deals with Trypanosoma cruzi.

Molecules are shown by their SMILES.

In the case of `O=C(Cn1ccnc1[N+](=O)[O-])NCc1ccccc1` [benznidazole], for the setting “adults with chronic Chagas infections”, the “onset of heart disease” value is “slow the onset”. Moreover, the cure rate entry (children aged six to 12 years with chronic disease) is recorded as “about 60%”. In addition, for the setting “months-long regimen”, the “patients who fail to complete the drug regimen due to toxicities” value was around 20%. Moreover, the serum parasite detection result (patients with established Chagas cardiomyopathy) is listed as “significantly reduced”. Besides, the cardiac clinical deterioration entry (patients with established Chagas cardiomyopathy, five years of follow-up) is reported as “did not significantly reduce”.
Take `CC[C@@H]([C@H](C)O)n1ncn(-c2ccc(N3CCN(c4ccc(OC[C@@H]5CO[C@@](Cn6cncn6)(c6ccc(F)cc6F)C5)cc4)CC3)cc2)c1=O` [posaconazole]: the “efficacy in human studies” value (human, in vivo) was “limited efficacy”.
